Assay results: patent publication US7824912B2, “Methods for ex vivo propagation of adult hepatic stem cells” (Massachusetts Institute of Technology, priority 2005, dated 2010)

How the values were obtained:
CYP3A4 = test system: CYP3A4
Method: FIG. 14A, cells were grown in a collagen-Matrigel™ sandwich with serum supplemented medium. FIG. 14B, cells were grown under routine culture conditions, but with serum-free medium. Data are the mean of replicate assays (n=2). Error bars indicate the standard deviation of replicate assays.
We undertook an evaluation of CYP3A4 activity in phHASC strains using a commercially available luciferase-based luminescent assay. The p450-GLO™ CYP3A4 luminescent assay was supplied by Promega Corp. (Madison, Wis.). The assay is based on a caged luciferin substrate that is specifically uncaged by the enzymatic action of CYP3A4. Once uncaged, luciferin is available for luciferase action and light production.
We evaluated the effect of rifampicin under two different conditions with two different concentrations of the solvent carrier DMSO, 0.03% and 5%. Parental phHASCs were evaluated after growth in a collagen-Matrigel™ sandwich, as recommended by the supplier of the p450-GLO™ CYP3A4 luminescent assay (FIG. 14A) or under standard culture conditions with serum-free medium (FIG. 14B).

somatic liver stem cells = assay: Derivation of phHASC strains from liver cells by the modified SACK method; assay type: cell-based, human
Method: Cells: Human liver cells are tested for blood borne agents, the non-parenchymal (NPC) fraction is place on ice for up to 24 hours and then centrifuged at 800×g for 5 minutes at 4° C. The resulting cell pellet is re-suspended in 50 ml-100 ml cold Dulbecco's Modified Eagle medium (DMEM-high glucose) supplemented with 1% dialyzed fetal bovine serum (DFBS). Based on the count of trypan blue-excluding viable cells, 5×10^6 viable cells are plated in 10-cm diameter cell culture dishes. Initiation Culture Medium: […] Maintenance Culture Medium: DMEM-high glucose supplemented with 10% DFBS, 20 ng/ml recombinant human epidermal growth factor, 0.5 ng/ml transforming growth factor β1, and the respective purine compound at the concentration used in the Initiation Culture Medium. Although initial efforts to derive cell strains by limiting dilution cloning were unsuccessful, we modified the approach by initially culturing primary liver cell preparations at confluent cell densities under conditions of reduced serum and supplementation with SACK agents, TGF-β and EGF (See Table 1). SACK-derived rat adult stem cell strains resist hepatocytic differentiation by TGF-β and EGF. Whereas their non-stem cell progeny undergo cell cycle withdrawal and hepatic differentiation in response to serum reduction and exposure to TGF-β and EGF, in the presence of Xs, the stem cells continue to cycle actively. The first four livers were invested in establishing a modified SACK procedure. Unlike the original procedure developed for derivation of rat hepatic adult stem cells (Lee et al., 2003), the new method is not based on limiting dilution cloning. Instead, the liver cells are initially cultured at confluent cell densities in low serum medium (1% dialyzed fetal bovine serum [dFBS]) supplemented with the growth factors TGFβ and EGF. In addition, higher concentrations of SACK agents are used, e.g. 1.5 mM Xs. These conditions suppress the growth of differentiating liver cells (including troublesome fibroblasts and stellate cells), while promoting the expansion of […]. After initial outgrowth of […] strains, serum supplementation is increased to 10% dFBS for routine maintenance. Table 1 summarizes results obtained when the newly adapted SACK procedure was applied to cell specimens from two livers from […] donors. All strains were cryo-preserved at early passages using a freezing procedure that minimizes the time that cells spend super-cooled before ice formation (Karlsson et al., 1996). This precaution provides a high level of viability (70%-80%) upon thawing the cells.

phHASC subclone C2 = assay: Colcemid arrest assay (CAA) of non-cycling cell fraction; assay type: cell-based, human; conditions: subclone C2, +Xs compared to -Xs
Method: FIGS. 12A and 12B show CAA analyses of a Xs-derived sub-clone (Parental strain see FIG. 10). […] The new assay is called the colcemid arrest assay (CAA). We used our engineered cell lines with experimentally controlled asymmetric self-renewal to develop it (Rambhatla et al., 2001; FIG. 9). Cell cultures are treated with the microtubule antagonist colcemid for a complete generation period. Conventional methods for propidium iodine staining and standard flow cytometry are used to quantify the DNA content of cells after colcemid treatment. In the presence of colcemid, cycling cells arrest in mitosis of the cell cycle with 4N DNA content. After one generation period, all previously cycling cells contain this amount of DNA. Therefore, for cell cultures with only symmetrically cycling cells, essentially the entire culture arrests in mitosis with 4N DNA (compare FIGS. 9A and 9C). In contrast, the DNA content of non-cycling cells is unchanged. […] Thus, CAA can identify and quantify the cycling stem cell fraction and the arrested differentiated progeny fraction of an asymmetrically self-renewing adult stem cell population (compare FIGS. 9B and 9D). […] In pilot studies with engineered cell lines, the CAA-determined rates were in good agreement with expectations based on previous lineage-specific cell kinetics assays. […]

Structure (SMILES) | effect on basal level of CYP3A4 activity (CYP3A4) | increase in CYP3A4 activity (CYP3A4; human, 48 h, 5 %) | Number of Strains (somatic liver stem cells; liver, 2 trials per SACK agent) | Number of Strains (somatic liver stem cells; liver, 3 trials per SACK agent) | non-cycling fraction (phHASC subclone C2) | reliability and effectiveness for developing strains (somatic liver stem cells; compared among Hx, Xn and Xs) | Sub-clones (somatic liver stem cells; liver)
C[S+](C)[O-] [DMSO, dimethylsulfoxide] | did not affect | 6.5 fold | – | – | – | – | –
O=c1[nH]cnc2nc[nH]c12 [Hx, hypoxanthine] | – | – | 2 | 3 | – | – | –
O=c1[nH]c(=O)c2[nH]cnc2[nH]1 [Xn, xanthine] | – | – | 1 | 3 | – | – | –
O=c1[nH]c(=O)c2ncn([C@@H]3O[C@H](CO)[C@@H](O)[C@H]3O)c2[nH]1 [Xs, xanthosine] | – | – | 2 | 1 | reduced | most reliable and effective | 9
